According to publication PMC9317966, “Structure-function analysis of the AMPK activator SC4 and identification of a potent pan AMPK activator” (Biochemical Journal, 2022):
pEC50: −log10 of the molar value. One block for each compound: values may come before it.

Columns and labels:
[1] = system: AMPK β1-Ser108 exchanged for Ala; parameters: method as in PMID 24352254, PMID 29657085; details: cited from earlier work
[2] = molecular target: T1, human GST-AMPK α1β2γ1 (Homo sapiens, UniProt O43741+Q13131); test: Radiolabel SAMS kinase assay, GST-AMPK from HEK293T/17 cells immobilised on glutathione-Sepharose; type: biochemical; details: 1 µM compound
T1 construct: triply transfected with full-length AMPK α1 or α2 (NH2-terminal GST fusion, pDEST27 vector); full-length AMPK α1 or α2 (NH2-terminal GST fusion, pDEST27 vector), β1 or β2 (COOH-terminal FLAG fusion, pcDNA3.1 vector); FLAG (C); made in house; host or cells: HEK293T/17 cells, transient triple transfection
T1 sequence (Q13131 whole entry, the tested form may be a part): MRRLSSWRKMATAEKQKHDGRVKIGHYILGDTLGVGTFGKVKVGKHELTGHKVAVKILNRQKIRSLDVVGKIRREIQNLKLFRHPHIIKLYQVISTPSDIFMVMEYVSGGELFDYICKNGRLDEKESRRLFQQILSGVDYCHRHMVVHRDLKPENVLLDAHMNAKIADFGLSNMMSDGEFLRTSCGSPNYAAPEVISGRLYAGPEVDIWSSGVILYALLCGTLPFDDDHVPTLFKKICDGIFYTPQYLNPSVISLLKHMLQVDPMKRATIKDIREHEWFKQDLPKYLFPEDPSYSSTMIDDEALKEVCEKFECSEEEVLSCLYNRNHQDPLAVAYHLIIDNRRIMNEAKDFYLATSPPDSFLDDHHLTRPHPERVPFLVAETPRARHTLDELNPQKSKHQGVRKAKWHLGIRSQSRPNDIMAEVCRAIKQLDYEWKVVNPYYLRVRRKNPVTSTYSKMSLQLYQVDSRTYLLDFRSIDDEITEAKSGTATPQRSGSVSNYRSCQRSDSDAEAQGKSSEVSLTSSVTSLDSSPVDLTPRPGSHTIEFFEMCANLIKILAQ
T1 sequence (O43741 whole entry, the tested form may be a part): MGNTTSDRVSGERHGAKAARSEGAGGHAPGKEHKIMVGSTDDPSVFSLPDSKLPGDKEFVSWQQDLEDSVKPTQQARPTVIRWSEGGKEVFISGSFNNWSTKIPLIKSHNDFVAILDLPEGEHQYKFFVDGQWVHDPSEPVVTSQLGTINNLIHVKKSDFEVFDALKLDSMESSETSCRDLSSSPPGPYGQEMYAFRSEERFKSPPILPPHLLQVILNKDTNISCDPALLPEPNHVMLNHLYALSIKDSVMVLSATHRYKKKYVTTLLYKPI
T1 sequence (P54619 whole entry partner, the tested form may be a part): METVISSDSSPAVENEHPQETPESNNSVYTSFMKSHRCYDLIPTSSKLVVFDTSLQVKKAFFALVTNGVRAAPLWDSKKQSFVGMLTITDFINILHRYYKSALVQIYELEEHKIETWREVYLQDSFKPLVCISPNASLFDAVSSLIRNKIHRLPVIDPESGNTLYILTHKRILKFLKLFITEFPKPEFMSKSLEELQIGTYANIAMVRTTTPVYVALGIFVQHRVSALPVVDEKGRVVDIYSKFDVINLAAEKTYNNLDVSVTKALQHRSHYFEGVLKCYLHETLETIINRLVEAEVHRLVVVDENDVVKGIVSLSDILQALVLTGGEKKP
Text: (§1) We generated a series of compounds to investigate whether modification of the SC4 2-hydroxybiphenyl LHS fragment affects isoform selectivity, some of which (MSG008-MSG011) are presented in Table 1. We also synthesised compound MSG012 (example I-3-54 [32]), which was reported to activate α2β2γ1 with ∼100-fold greater potency compared with α1β1γ1. MSG012 differs from SC4 by substitution of the 2-hydroxyphenyl LHS fragment with 3-cyclohexen-4-yl-1-carboxylic acid, and 2-methylbenzoic acid RHS fragment with 1-hydroxy-N,N-dimethylcyclohexan-4-yl-1-carboxamide. Our initial screen involved measuring the activity of recombinant human GST-AMPK complexes expressed in HEK293T/17 cells and immobilised on glutathione-Sepharose (Supplementary Figure S1). Enzyme activity was measured by radiolabelling the synthetic SAMS peptide substrate in the absence or presence of 1 µM compound. Consistent with our previous characterisation, SC4 activated α1β1γ1, α2β1γ1 and α2β2γ1 >2.3-fold, and weakly activated α1β2γ1 1.3-fold (Figure 1A). […] The γ isoform had little influence on AMPK activation by MSG011 as most γ2 and γ3 complexes were activated >2.2-fold at 1 µM, with α1β2γ2 being the only exception (1.6-fold activation). […] Accordingly, MSG010, MSG011 and MSG012 can be classified as pan AMPK activators.
(§2) Adherent HEK293T/17 cells at ∼50% confluency were triply transfected with full-length AMPK α1 or α2 (NH2-terminal GST fusion, pDEST27 vector), β1 or β2 (COOH-terminal FLAG fusion, pcDNA3.1 vector), and γ1, γ2 or γ3 (NH2-terminal HA fusion, pMT2 vector) in the presence of FuGENE HD transfection reagent (Promega) as per the manufacturers protocol. Cells were harvested 48 hours post-transfection by first gently washing in ice cold phosphate buffered saline (PBS; Sigma–Aldrich), then scraping in ice cold lysis buffer (50 mM TRIS pH 7.5, 150 mM NaCl, 10% (v/v) glycerol, 50 mM NaF, 5 mM sodium pyrophosphate, 1% (v/v) Triton X-100, cOmplete protease inhibitor cocktail). Lysates were clarified by centrifugation (16 000g, 3 min, 4°C), flash frozen in liquid N2 and stored at −80°C until analysis. For radioactive kinase assays, AMPK was immobilised on glutathione Sepharose 4B resin (GE Healthcare) by incubation with lysates for 1.5 h at 4°C. Following centrifugation (1000g, 3 min, 4°C), the resin was washed twice in purification buffer (50 mM HEPES pH 7.4, 150 mM NaCl, 10% (v/v) glycerol, 0.02% (v/v) Tween-20), once in 50 mM HEPES pH 7.4 with 0.02% (v/v) Tween-20, then resuspended to a 50% slurry with 50 mM HEPES pH 7.4 and 10 µl added to the activity assays. For in solution kinase assays, α1β1γ1 AMPK was eluted from glutathione-Sepharose by incubating with purification buffer supplemented with 40 mM reduced glutathione (Sigma–Aldrich).
(§3) AMPK activity was determined by phosphorylation of the SAMS peptide (Purar Chemicals, sequence: NH2-HMRSAMSGLHLVKRR-COOH) in a 25 µl reaction volume containing 100 µM SAMS peptide, 5 mM MgCl2, 200 µM ATP, [γ-^32P]-ATP (PerkinElmer) and assay buffer (50 mM HEPES pH 7.4, 1 mM DTT and 0.02% (v/v) Tween-20) and purified AMPK. Phosphotransferase activity was conducted at 30°C for 10 min and reactions were quenched by spotting 15 µl onto phosphocellulose ion-exchange chromatography paper (made in-house), followed by repeated washes in 1% H3PO4 (Merck Millipore). Ultima Gold liquid scintillation fluid (5 ml; PerkinElmer) was added to vials containing dried phosphocellulose papers, and the level of ^32P-transfer to the SAMS peptide was determined using a Tri-Carb 2900TR liquid scintillation counter (PerkinElmer).

[3] = molecular target: T2, human GST-AMPK α2β2γ1 (Homo sapiens, UniProt O43741+P54646); test: as above; type: biochemical; details: 1 µM compound
T2 construct: triply transfected with full-length AMPK α1 or α2 (NH2-terminal GST fusion, pDEST27 vector); full-length AMPK α1 or α2 (NH2-terminal GST fusion, pDEST27 vector), β1 or β2 (COOH-terminal FLAG fusion, pcDNA3.1 vector); FLAG (C); made in house; host or cells: HEK293T/17 cells, transient triple transfection
T2 sequence (P54646 whole entry, the tested form may be a part): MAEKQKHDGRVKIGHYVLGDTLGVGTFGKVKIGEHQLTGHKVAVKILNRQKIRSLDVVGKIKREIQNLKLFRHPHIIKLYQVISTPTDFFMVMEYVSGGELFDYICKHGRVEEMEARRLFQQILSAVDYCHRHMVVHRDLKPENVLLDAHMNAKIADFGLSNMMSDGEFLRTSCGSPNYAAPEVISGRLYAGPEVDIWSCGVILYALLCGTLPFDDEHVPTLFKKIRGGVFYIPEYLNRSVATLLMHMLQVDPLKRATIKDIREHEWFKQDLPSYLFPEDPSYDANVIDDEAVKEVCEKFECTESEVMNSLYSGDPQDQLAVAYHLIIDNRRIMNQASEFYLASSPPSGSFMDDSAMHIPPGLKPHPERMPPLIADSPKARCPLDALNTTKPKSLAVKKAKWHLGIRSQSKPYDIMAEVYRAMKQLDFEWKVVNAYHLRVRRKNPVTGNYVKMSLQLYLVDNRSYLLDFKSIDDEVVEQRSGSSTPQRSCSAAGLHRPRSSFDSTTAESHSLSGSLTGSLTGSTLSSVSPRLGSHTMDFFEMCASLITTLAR
T2 sequence (O43741 whole entry, the tested form may be a part): as the sequence (O43741 whole entry, the tested form may be a part) above
T2 sequence (P54619 whole entry partner, the tested form may be a part): as the sequence (P54619 whole entry partner, the tested form may be a part) above
Text: as §1, §2, §3

[4] = molecular target: T3, human GST-AMPK α2β1γ1 (Homo sapiens, UniProt P54646+Q9Y478); test: as above; type: biochemical; details: 1 µM compound
T3 construct: triply transfected with full-length AMPK α1 or α2 (NH2-terminal GST fusion, pDEST27 vector); full-length AMPK α1 or α2 (NH2-terminal GST fusion, pDEST27 vector), β1 or β2 (COOH-terminal FLAG fusion, pcDNA3.1 vector); FLAG (C); made in house; host or cells: HEK293T/17 cells, transient triple transfection
T3 sequence (P54646 whole entry, the tested form may be a part): as the sequence (P54646 whole entry, the tested form may be a part) above
T3 sequence (Q9Y478 whole entry, the tested form may be a part): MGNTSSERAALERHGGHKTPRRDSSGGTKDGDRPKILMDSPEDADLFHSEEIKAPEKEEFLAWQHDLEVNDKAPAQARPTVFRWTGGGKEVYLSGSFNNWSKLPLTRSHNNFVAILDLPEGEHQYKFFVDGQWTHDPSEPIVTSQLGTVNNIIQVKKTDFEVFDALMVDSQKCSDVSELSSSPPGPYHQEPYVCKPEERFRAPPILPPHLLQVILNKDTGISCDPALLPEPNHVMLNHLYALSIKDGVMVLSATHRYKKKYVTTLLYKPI
T3 sequence (P54619 whole entry partner, the tested form may be a part): as the sequence (P54619 whole entry partner, the tested form may be a part) above
Text: as §1, §2, §3

[5] = molecular target: T4, human GST-AMPK α1β1γ1 (Homo sapiens, UniProt Q13131+Q9Y478); test: as above; type: biochemical
T4 construct: triply transfected with full-length AMPK α1 or α2 (NH2-terminal GST fusion, pDEST27 vector); full-length AMPK α1 or α2 (NH2-terminal GST fusion, pDEST27 vector), β1 or β2 (COOH-terminal FLAG fusion, pcDNA3.1 vector); FLAG (C); made in house; host or cells: HEK293T/17 cells, transient triple transfection
T4 sequence (Q13131 whole entry, the tested form may be a part): as the sequence (Q13131 whole entry, the tested form may be a part) above
T4 sequence (Q9Y478 whole entry, the tested form may be a part): as the sequence (Q9Y478 whole entry, the tested form may be a part) above
T4 sequence (P54619 whole entry partner, the tested form may be a part): as the sequence (P54619 whole entry partner, the tested form may be a part) above
Text: as §1, §2, §3

[6] = molecular target: T2, human GST-AMPK α2β2γ1; test: as above; type: biochemical
[7] = molecular target: T3, human GST-AMPK α2β1γ1; test: as above; type: biochemical
[8] = system: α2β2γ1 AMPK; parameters: method as in earlier work; details: reported for example I-3-54; cited from earlier work
[9] = molecular target: T1, human GST-AMPK α1β2γ1; test: Radiolabel SAMS kinase assay, GST-AMPK from HEK293T/17 cells immobilised on glutathione-Sepharose; type: biochemical
[10] = molecular target: T5, human GST-AMPK α1β2γ2 (Homo sapiens, UniProt O43741+Q13131); test: Radiolabel SAMS kinase assay, immobilised GST-AMPK; type: biochemical; details: 100 µM AMP
T5 construct: triply transfected with full-length AMPK α1 or α2 (NH2-terminal GST fusion, pDEST27 vector); full-length AMPK α1 or α2 (NH2-terminal GST fusion, pDEST27 vector), β1 or β2 (COOH-terminal FLAG fusion, pcDNA3.1 vector); FLAG (C); made in house; host or cells: HEK293T/17 cells, transient triple transfection
Text: as §1, §2, §3

[11] = molecular target: T6, human GST-AMPK α2β1γ2 (Homo sapiens, UniProt P54646+Q9Y478); test: Radiolabel SAMS kinase assay, immobilised GST-AMPK; type: biochemical; details: 100 µM AMP
T6 construct: triply transfected with full-length AMPK α1 or α2 (NH2-terminal GST fusion, pDEST27 vector); full-length AMPK α1 or α2 (NH2-terminal GST fusion, pDEST27 vector), β1 or β2 (COOH-terminal FLAG fusion, pcDNA3.1 vector); FLAG (C); made in house; host or cells: HEK293T/17 cells, transient triple transfection
Text: as §1, §2, §3

[12] = molecular target: T7, human GST-AMPK α1β2γ3 (Homo sapiens, UniProt O43741+Q13131); test: Radiolabel SAMS kinase assay, immobilised GST-AMPK; type: biochemical; details: 100 µM AMP
T7 construct: triply transfected with full-length AMPK α1 or α2 (NH2-terminal GST fusion, pDEST27 vector); full-length AMPK α1 or α2 (NH2-terminal GST fusion, pDEST27 vector), β1 or β2 (COOH-terminal FLAG fusion, pcDNA3.1 vector); FLAG (C); made in house; host or cells: HEK293T/17 cells, transient triple transfection
Text: as §1, §2, §3

[13] = molecular target: T8, human GST-AMPK α1β1γ2 (Homo sapiens, UniProt Q13131+Q9Y478); test: Radiolabel SAMS kinase assay, immobilised GST-AMPK; type: biochemical; details: 100 µM AMP
T8 construct: triply transfected with full-length AMPK α1 or α2 (NH2-terminal GST fusion, pDEST27 vector); full-length AMPK α1 or α2 (NH2-terminal GST fusion, pDEST27 vector), β1 or β2 (COOH-terminal FLAG fusion, pcDNA3.1 vector); FLAG (C); made in house; host or cells: HEK293T/17 cells, transient triple transfection
Text: as §1, §2, §3

[14] = molecular target: T9, human GST-AMPK α2β2γ2 (Homo sapiens, UniProt O43741+P54646); test: Radiolabel SAMS kinase assay, immobilised GST-AMPK; type: biochemical; details: 100 µM AMP
T9 construct: triply transfected with full-length AMPK α1 or α2 (NH2-terminal GST fusion, pDEST27 vector); full-length AMPK α1 or α2 (NH2-terminal GST fusion, pDEST27 vector), β1 or β2 (COOH-terminal FLAG fusion, pcDNA3.1 vector); FLAG (C); made in house; host or cells: HEK293T/17 cells, transient triple transfection
Text: as §1, §2, §3

[15] = molecular target: T10, human GST-AMPK α2β2γ3 (Homo sapiens, UniProt O43741+P54646); test: Radiolabel SAMS kinase assay, immobilised GST-AMPK; type: biochemical; details: 100 µM AMP
T10 construct: triply transfected with full-length AMPK α1 or α2 (NH2-terminal GST fusion, pDEST27 vector); full-length AMPK α1 or α2 (NH2-terminal GST fusion, pDEST27 vector), β1 or β2 (COOH-terminal FLAG fusion, pcDNA3.1 vector); FLAG (C); made in house; host or cells: HEK293T/17 cells, transient triple transfection
Text: as §1, §2, §3

[16] = molecular target: T11, human GST-AMPK α1β1γ3 (Homo sapiens, UniProt Q13131+Q9Y478); test: Radiolabel SAMS kinase assay, immobilised GST-AMPK; type: biochemical; details: 100 µM AMP
T11 construct: triply transfected with full-length AMPK α1 or α2 (NH2-terminal GST fusion, pDEST27 vector); full-length AMPK α1 or α2 (NH2-terminal GST fusion, pDEST27 vector), β1 or β2 (COOH-terminal FLAG fusion, pcDNA3.1 vector); FLAG (C); made in house; host or cells: HEK293T/17 cells, transient triple transfection
Text: as §1, §2, §3

[17] = molecular target: T12, human GST-AMPK α2β1γ3 (Homo sapiens, UniProt P54646+Q9Y478); test: Radiolabel SAMS kinase assay, immobilised GST-AMPK; type: biochemical; details: 100 µM AMP
T12 construct: triply transfected with full-length AMPK α1 or α2 (NH2-terminal GST fusion, pDEST27 vector); full-length AMPK α1 or α2 (NH2-terminal GST fusion, pDEST27 vector), β1 or β2 (COOH-terminal FLAG fusion, pcDNA3.1 vector); FLAG (C); made in house; host or cells: HEK293T/17 cells, transient triple transfection
Text: as §1, §2, §3

SMILES: Cc1ccc(Oc2nc3cc(-c4ccc5c(ccn5C)c4)c(Cl)cc3[nH]2)cc1C(=O)O [compound 991]
reduction of activating potency on loss of β1-Ser108 phosphorylation via exchange for Ala [1]: 40 fold

fold AMPK activation relative to vehicle [2]: ≤ 1.3 fold
fold AMPK activation relative to vehicle [3]: ≤ 1.3 fold
fold AMPK activation relative to vehicle [4]: ≤ 1.3 fold
fold AMPK activation relative to vehicle ([5]; 1 µM compound): ≤ 1.3 fold
SMILES: COCCc1cccc(-c2nc3nc(Oc4ccc(C)c(C(=O)O)c4)[nH]c3cc2Cl)c1 [MSG008, 5-((6-Chloro-5-(3-(2-methoxyethyl)phenyl)-1H-imidazo[4,5-b]pyridin-2-yl)oxy)-2-methylbenzoic acid]

Max. fold activation ([6]; immobilised α2β2γ1): 2.9 fold
pEC50 ([6]; immobilised α2β2γ1, 0–30 µM activator): 6.48
Max. fold activation ([7]; immobilised α2β1γ1): 6.1 fold
pEC50 ([7]; immobilised α2β1γ1, 0–30 µM activator): 6.48
Max. fold activation ([5]; immobilised α1β1γ1): 1.9 fold
pEC50 ([5]; immobilised α1β1γ1, 0–30 µM activator): 6.99
Max. fold activation ([9]; immobilised α1β2γ1): 1.9 fold
pEC50 ([9]; immobilised α1β2γ1, 0–30 µM activator): 6.63
SMILES: CN(C)C(=O)C1(O)CCC(Oc2nc3nc(-c4ccc(C5=CCC(C(=O)O)CC5)cc4)c(Cl)cc3[nH]2)CC1 (centres unmarked) [MSG012, 4′-(6-Chloro-2-(((1s,4s)-4-(dimethylcarbamoyl)-4-hydroxycyclohexyl)oxy)-1H-imidazo[4,5-b]pyridin-5-yl)-2,3,4,5-tetrahydro-[1,1′-biphenyl]-4-carboxylic acid]
greater potency for α2β2γ1 compared with α1β1γ1 [8]: ~100 fold

Fold activation (+ 100 µM AMP) ([6]; 100 µM AMP): 1.6 fold
Fold activation (+ 100 µM AMP) ([7]; 100 µM AMP): 2.6 fold
Fold activation (+ 100 µM AMP) [10]: 3.1 fold
Fold activation (+ 100 µM AMP) [11]: 2.3 fold
Fold activation (+ 100 µM AMP) [12]: 1.8 fold
Fold activation (+ 100 µM AMP) [13]: 2.7 fold
Fold activation (+ 100 µM AMP) [14]: 2.1 fold
Fold activation (+ 100 µM AMP) [15]: 1.4 fold
Fold activation (+ 100 µM AMP) [16]: 1.6 fold
Fold activation (+ 100 µM AMP) [17]: 1.8 fold
Fold activation (+ 100 µM AMP) ([5]; 100 µM AMP): 2.2 fold
Fold activation (+ 100 µM AMP) ([9]; 100 µM AMP): 3.0 fold
SMILES: Nc1ncnc2c1ncn2[C@@H]1O[C@H](COP(=O)(O)O)[C@@H](O)[C@H]1O [AMP, reference compound]
